Laboratory results: patent publication US20160159814A1, “GLYCINE TRANSPORTER INHIBITOR” (TAISHO PHARMACEUTICAL CO., LTD., priority 2013, published 2016)

target: T1, human type 1 glycine transporter (GlyT1) (Homo sapiens, UniProt P48067); assay: Glycine uptake inhibition experiment ([3H] glycine uptake in T98G cells expressing GlyT1); assay type: cell-based; conditions: not given
T1 construct: T98G cells (glioma cells) expressing human type 1 glycine transporter (GlyT1) were used; endogenous in cells; host or cells: T98G cells (human glioma cells)
T1 sequence (P48067 1-706): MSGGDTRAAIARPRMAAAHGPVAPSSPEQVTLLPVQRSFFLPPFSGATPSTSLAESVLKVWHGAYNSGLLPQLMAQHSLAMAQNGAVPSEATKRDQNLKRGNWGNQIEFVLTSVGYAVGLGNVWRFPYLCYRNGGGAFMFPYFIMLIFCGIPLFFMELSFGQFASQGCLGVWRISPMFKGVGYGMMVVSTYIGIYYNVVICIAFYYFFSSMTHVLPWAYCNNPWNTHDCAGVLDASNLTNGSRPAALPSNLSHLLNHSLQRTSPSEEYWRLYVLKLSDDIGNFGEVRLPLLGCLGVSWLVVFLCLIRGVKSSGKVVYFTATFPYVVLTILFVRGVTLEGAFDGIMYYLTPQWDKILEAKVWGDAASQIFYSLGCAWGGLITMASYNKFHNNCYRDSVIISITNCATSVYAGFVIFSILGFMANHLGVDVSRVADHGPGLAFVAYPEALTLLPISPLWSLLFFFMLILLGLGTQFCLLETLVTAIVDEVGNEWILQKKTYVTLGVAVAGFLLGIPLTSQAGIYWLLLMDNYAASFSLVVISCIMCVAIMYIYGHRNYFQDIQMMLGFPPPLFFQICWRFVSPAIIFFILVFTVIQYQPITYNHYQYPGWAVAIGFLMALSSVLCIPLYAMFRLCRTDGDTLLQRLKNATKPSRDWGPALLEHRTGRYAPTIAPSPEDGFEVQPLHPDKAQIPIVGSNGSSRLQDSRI
Procedure: Glycine Uptake Inhibition Experiment
A glycine uptake experiment was conducted in accordance with the method published in Neuron, 8, 927-935, 1992. In the experiment, T98G cells (glioma cells) expressing human type 1 glycine transporter (GlyT1) were used. The T98G cells were seeded in a 96-well plate at 2.0×10^4 cells/well and cultured overnight in a CO2 incubator. The test substance was dissolved in a 100% DMSO solution and then dissolved in a 10 mM HEPES buffer solution (pH 7.4) containing 150 mM sodium chloride, 1 mM calcium chloride, 5 mM potassium chloride, 1 mM magnesium chloride, 10 mM glucose and 0.2% bovine serum albumin. After removing the cell culture medium, the test substance was subjected to a 10-min pretreatment. Subsequently, the test substance and [^3H] glycine (final concentration: 250 nM) were added to the cells and reaction was performed at room temperature for 15 minutes. After the end of the reaction, the extracellular fluid was aspirated with a manifold to remove excess labeled glycine present outside the cells, and then the cells were lysed with a 0.5 M aqueous sodium hydroxide solution. The glycine content in the cells was determined by measuring the radioactivity in the cell lysate with a liquid scintillation counter. Glycine uptake in the presence of 10 μM ALX5407 was defined as non-specific uptake, and the value calculated by subtracting the amount of the non-specific uptake from the total uptake in the absence of 10 μM ALX5407 was defined as specific uptake. In addition, glycine uptake inhibitory activity (IC50 value) was calculated from an inhibition curve at the concentrations of each test substance ranging from 10^−9 to 10^−5 M. It should be noted that ALX5407 is an HCl salt of N-[(3R)-3-([1,1′-biphenyl]-4-yloxy)-3-(4-fluorophenyl)propyl]-N-methylglycine.

IC50 [µM]	Structure (SMILES)
0.053	O=C1N(Cc2cc(C(F)(F)F)ccn2)c2cccc(C(O)C(F)F)c2C1(F)F (single isomer, unassigned) [Compound 159, 4-(2,2-difluoro-1-hydroxyethyl)-3,3-difluoro-1-{[4-(trifluoromethyl)pyridin-2-yl]methyl}-1,3-dihydro-2H-indol-2-one]
0.35	O=C1N(Cc2ccc(Cl)nc2)c2cccc(C(O)C(F)F)c2C1(F)F (single isomer, unassigned) [Compound 160, 1-[(6-chloropyridin-3-yl)methyl]-4-(2,2-difluoro-1-hydroxyethyl)-3,3-difluoro-1,3-dihydro-2H-indol-2-one]
0.09	O=C1N(Cc2ccc(C(F)(F)F)nc2)c2cccc(C(O)C(F)F)c2C1(F)F (single isomer, unassigned) [Compound 161, 4-(2,2-difluoro-1-hydroxyethyl)-3,3-difluoro-1-{[6-(trifluoromethyl)pyridin-3-yl]methyl}-1,3-dihydro-2H-indol-2-one]
0.22	O=C1N(Cc2ccc(Cl)cn2)c2cccc(C(O)C(F)F)c2C1(F)F (single isomer, unassigned) [Compound 162, 1-[(5-chloropyridin-2-yl)methyl]-4-(2,2-difluoro-1-hydroxyethyl)-3,3-difluoro-1,3-dihydro-2H-indol-2-one]
0.46	N#Cc1cncc(CN2C(=O)C(F)(F)c3c(C(O)C(F)F)cccc32)c1 (single isomer, unassigned) [Compound 164, 5-{[4-(2,2-difluoro-1-hydroxyethyl)-3,3-difluoro-2-oxo-2,3-dihydro-1H-indol-1-yl]methyl}pyridine-3-carbonitrile]
0.048	COc1cc(CN2C(=O)C(F)(F)c3c(C(O)C(F)F)cccc32)ccn1 (single isomer, unassigned) [Compound 165, 4-(2,2-difluoro-1-hydroxyethyl)-3,3-difluoro-1-[(2-methoxypyridin-4-yl)methyl]-1,3-dihydro-2H-indol-2-one]
0.062	Cn1c(=O)c(CN2C(=O)C(F)(F)c3c(C(O)C(F)F)cccc32)nc2ccccc21 (single isomer, unassigned) [Compound 167, 3-{[4-(2,2-difluoro-1-hydroxyethyl)-3,3-difluoro-2-oxo-2,3-dihydro-1H-indol-1-yl]methyl)-1-methylquinoxalin-2(1H)-one]
0.28	O=C1N(Cc2ccc(F)cn2)c2cccc(C(O)C(F)F)c2C1(F)F (single isomer, unassigned) [Compound 168, 4-(2,2-difluoro-1-hydroxyethyl)-3,3-difluoro-1-[(5-fluoropyridin-2-yl)methyl]-1,3-dihydro-2H-indol-2-one]
0.056	O=C1N(Cc2ccc(C(F)(F)F)cn2)c2cccc(C(O)C(F)F)c2C1(F)F (single isomer, unassigned) [Compound 169]
0.11	Cn1c(CN2C(=O)C(F)(F)c3c(C(O)C(F)F)cccc32)nc2ccccc21 (single isomer, unassigned) [Compound 170, 4-(2,2-difluoro-1-hydroxyethyl)-3,3-difluoro-1-[(1-methyl-1H-benzimidazol-2-yl)methyl]-1,3-dihydro-2H-indol-2-one]
0.17	O=C1N(Cc2nc3cc(F)ccc3o2)c2cccc(C(O)C(F)F)c2C1(F)F (single isomer, unassigned) [Compound 171, 4-(2,2-difluoro-1-hydroxyethyl)-3,3-difluoro-1-[(5-fluoro-1,3-benzoxazol-2-yl)methyl]-1,3-dihydro-2H-indol-2-one]
0.024	O=C1N(Cc2cncc(Cl)n2)c2cccc(C(O)C(F)F)c2C1(F)F (single isomer, unassigned) [Compound 172, 1-[(6-chloropyrazin-2-yl)methyl]-4-(2,2-difluoro-1-hydroxyethyl)-3,3-difluoro-1,3-dihydro-2H-indol-2-one]
0.041	N#Cc1cccc(CN2C(=O)C(F)(F)c3c(C(O)C(F)F)cccc32)n1 (single isomer, unassigned) [Compound 176, 6-{[4-(2,2-difluoro-1-hydroxyethyl)-3,3-difluoro-2-oxo-2,3-dihydro-1H-indol-1-yl]methyl}pyridine-2-carbonitrile]
0.044	Cn1c(CN2C(=O)C(F)(F)c3c(C(O)C(F)F)cccc32)nc2cc(F)ccc2c1=O (single isomer, unassigned) [Compound 178, 2-{[4-(2,2-difluoro-1-hydroxyethyl)-3,3-difluoro-2-oxo-2,3-dihydro-1H-indol-1-yl]methyl}-7-fluoro-3-methylquinazolin-4(3H)-one]

same assay, conditions: glycine uptake inhibition

IC50 [µM]	Structure (SMILES)
0.24	O=C1N(Cc2cncc(F)c2)c2cccc(C(O)C(F)F)c2C1(F)F (single isomer, unassigned) [Compound 144, 4-(2,2-difluoro-1-hydroxyethyl)-3,3-difluoro-1-[(5-fluoropyridin-3-yl)methyl]-1,3-dihydro-2H-indol-2-one]
0.061	O=C1N(Cc2cc(Cl)ccn2)c2cccc(C(O)C(F)F)c2C1(F)F (single isomer, unassigned) [Compound 146, 1-[(4-chloropyridin-2-yl)methyl]-4-(2,2-difluoro-1-hydroxyethyl)-3,3-difluoro-1,3-dihydro-2H-indol-2-one]
0.36	O=C1N(Cc2ccnc(-n3nccn3)c2)c2cccc(C(O)C(F)F)c2C1(F)F (single isomer, unassigned) [Compound 147, 4-(2,2-difluoro-1-hydroxyethyl)-3,3-difluoro-1-{[2-(2H-1,2,3-triazol-2-yl)pyridin-4-yl]methyl}-1,3-dihydro-2H-indol-2-one]
0.039	O=C1N(Cc2cncc(-n3nccn3)c2)c2cccc(C(O)C(F)F)c2C1(F)F (single isomer, unassigned) [Compound 148, 4-(2,2-difluoro-1-hydroxyethyl)-3,3-difluoro-1-{[5-(2H-1,2,3-triazol-2-yl)pyridin-3-yl]methyl}-1,3-dihydro-2H-indol-2-one]
0.088	O=C1N(Cc2ccnc(C(F)F)c2)c2cccc(C(O)C(F)F)c2C1(F)F (single isomer, unassigned) [Compound 152, 4-(2,2-difluoro-1-hydroxyethyl)-1-{[2-(difluoromethyl)pyridin-4-yl]methyl}-3,3-difluoro-1,3-dihydro-2H-indol-2-one]
0.13	O=C1N(Cc2cccc(C(F)F)n2)c2cccc(C(O)C(F)F)c2C1(F)F (single isomer, unassigned) [Compound 153, 4-(2,2-difluoro-1-hydroxyethyl)-1-{[6-(difluoromethyl)pyridin-2-yl]methyl}-3,3-difluoro-1,3-dihydro-2H-indol-2-one]
0.26	O=C1N(Cc2cc(F)ccn2)c2cccc(C(O)C(F)F)c2C1(F)F (single isomer, unassigned) [Compound 154, 4-(2,2-difluoro-1-hydroxyethyl)-3,3-difluoro-1-[(4-fluoropyridin-2-yl)methyl]-1,3-dihydro-2H-indol-2-one]
0.11	O=C1N(Cc2ccc(F)nc2)c2cccc(C(O)C(F)F)c2C1(F)F (single isomer, unassigned) [Compound 156, 4-(2,2-difluoro-1-hydroxyethyl)-3,3-difluoro-1-[(6-fluoropyridin-3-yl)methyl]-1,3-dihydro-2H-indol-2-one]
0.021	O=C1N(Cc2ccccc2)c2cccc(C(O)C(F)F)c2C1(F)F (single isomer, unassigned) [Compound 157, 1-benzyl-4-(2,2-difluoro-1-hydroxyethyl)-3,3-difluoro-1,3-dihydro-2H-indol-2-one]
0.016	O=C1N(Cc2cccc(F)c2)c2cccc(C(O)C(F)F)c2C1(F)F (single isomer, unassigned) [Compound 158, 4-(2,2-difluoro-1-hydroxyethyl)-3,3-difluoro-1-(3-fluorobenzyl)-1,3-dihydro-2H-indol-2-one]
